According to patent US20250340591A1, “COMPOSITION FOR PREVENTING OR TREATING INFLAMMATORY BOWEL DISEASE CONTAINING NOVEL COMPOUND” (ANYGEN CO., LTD., priority 2021, published 2025):

Target: T1, GPR39 (Homo sapiens, UniProt O43194)
T1 sequence (O43194 1-453): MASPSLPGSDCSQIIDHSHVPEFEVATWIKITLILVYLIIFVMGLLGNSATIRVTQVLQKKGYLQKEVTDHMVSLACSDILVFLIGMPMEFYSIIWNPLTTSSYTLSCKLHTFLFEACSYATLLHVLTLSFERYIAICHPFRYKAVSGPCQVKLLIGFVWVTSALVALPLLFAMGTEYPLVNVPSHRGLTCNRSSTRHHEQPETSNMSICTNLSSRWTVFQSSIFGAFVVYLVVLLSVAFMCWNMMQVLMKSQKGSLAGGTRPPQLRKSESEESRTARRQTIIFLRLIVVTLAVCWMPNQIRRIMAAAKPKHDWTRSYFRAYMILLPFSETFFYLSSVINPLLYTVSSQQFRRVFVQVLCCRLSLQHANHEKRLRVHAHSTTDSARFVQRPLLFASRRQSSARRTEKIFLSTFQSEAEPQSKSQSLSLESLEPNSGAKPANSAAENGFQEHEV
Experiment: calcium influx assay system (aequorin, CV-1 cells)
Assay type: cell-based
Parameters: host or cells: CV-1 fibroblast cell line, lipofectamine transfection
Conditions: CV-1 transfected with hGPR39, Gαq
Excerpt: After culturing, the degree of binding of calcium activated by activated GPR39 to aequrin was quantified using a luminometer (bottom in FIG. 73).

CCCCCCCC(=O)NCCCC[C@H](NC(=O)[C@@H](N)Cc1cn(C(c2ccccc2)c2ccccc2)cn1)C(=O)N[C@H](Cc1ccc(C)cc1)C(=O)N[C@@H](Cc1ccc(O)cc1)C(=O)O [HKFY-34, ((R)-2-((S)-2-((S)-2-amino-3-(1-benzhydryl-1H-imidazol-4-yl)propanamido)-6-octanamidohexanamido)-3-(p-tolyl)propanoyl)-L-tyrosine]
Ca2+ influx assay ECmax (−fold induction over basal): 2.4 ± 4.59 fold induction over basal
